“Also recorded” adds a separate entry of the source.
What was measured:
HIV-1 (IIIB) = assay: SEVI mediated enhancement of HIV infection, CEM 5.25 cells (luciferase); assay type: cell-based; details: 25 μg/mL SEVI fibrils; compound 5.5, 11 and 16.5 μg/mL; 72 hrs
Experimental: CEM 5.25 cells were exposed to infectious HIV-1 (IIIB) for 2 hours in the absence or presence (25 μg/mL) of SEVI fibrils; BTA-EG4 (FIG. 5A) and EG6 (FIG. 5B) was added at concentrations of 5.5, 11 and 16.5 μg/mL.

HIV-1 IIIB [1] = assay: Semen mediated enhancement of HIV infection, CEM 5.25 cells (luciferase); assay type: cell-based; details: 50% semen, diluted 15 fold; 48 hours
Experimental: After 10 minutes these stocks were diluted 15 fold into CEM 5.25 cells.
After 10 minutes, the stocks were diluted 15 fold and incubated with CEM 5.25 cells. […] After 90 minutes cells were washed to remove any unbound virus and bound virions were detected using a p24 ELISA.

HIV-1 IIIB [2] = assay: Virus binding assay, HIV-1 IIIB virions to Jurkat cells (p24); assay type: cell-based; details: for SEVI-enhanced binding of HIV-1 IIIB virions to Jurkat cells (p24 ELISA): SEVI-pretreated virions, 90 min, increasing concentrations
Experimental: After 90 minutes, cells were washed to remove any unbound virus and bound virions were detected using a p24 ELISA. […]
After 90 min, cells were washed to remove any unbound virus, and bound virions were detected using an HIV-1 p24 antigen capture assay (Advanced Bioscience Laboratory). […]
After 90 min, cells were washed to remove any unbound virus, and bound virions were detected using an HIV-1 p24 antigen capture assay (Advanced Bioscience Laboratory, Rockville, Md.).

[3] = target: aggregated Alzheimer disease-related Aβ(1-42) peptides (Homo sapiens, UniProt P05067); details: read-out: Kd for binding to aggregated Aβ(1-42) peptides; same fluorescence binding assay
Sequence of aggregated Alzheimer disease-related Aβ(1-42) peptides (P05067 672-713): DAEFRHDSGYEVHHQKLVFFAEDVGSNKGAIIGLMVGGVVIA
Experimental: These incubations were performed in duplicate runs and allowed to equilibrate overnight at room temperature. After equilibration, each solution was centrifuged at 16,000×g for 30 min. The supernatants were separated from the pelleted fibrils, and 220 μl of fresh PBS was added to resuspend the pellets. […] Error bars represent standard deviations from the mean. […] The data were processed using Origin 7.0 (MicroCal Software, Inc., Northampton, Mass.).

Jurkat cells = assay: Flow cytometry, binding of SEVI-biotin fibrils to Jurkat cell surface (SA-FITC); assay type: cell-based, human; details: for MFI (mean fluorescent intensity) / SA-FITC+ (cells with bound fibrils): SEVI-biotin 1 h
Experimental: Cells were incubated for 1 h at 37° C., washed, and stained for 1 h with a covalent conjugate of streptavidin and fluorescein isothiocyanate (SA-FITC). Cells were washed and run on an Accuri C6 Flow Cytometer (Accuri Cytometers, Ann Arbor, Mich.). Data were analyzed using FlowJo (TreeStar Inc, Ashland, Oreg.).
After that time, fibrillar structures were examined by ThT fluorescence. ThT changes in fluorescence intensity when intercalated into the β-sheet structure common to amyloid fibrils; therefore, ThT fluorescence serves as a surrogate measure for fibrillar structure of SEVI and for the stability of SEVI fibrils. […] Binding of the fibrils to the cell surface was detected using SA-FITC. […] Surface-bound fibrils were detected with SA-FITC and measured by flow cytometry. Results are shown as percentage of cells with bound fibrils (SA-FITC+) as well as mean fluorescent intensity (MFI).

HIV-1ADA [4] = system: HIV-1ADA
Experimental: Treated virions were then added to 5×10^4 CEM-M7 cells/well in 96-well flat-bottomed tissue culture plates. After 2 h, the medium […] were replaced. Infection was assayed after 48 h by quantifying luciferase expression using the Promega Dual-Luciferase assay and a Beckman Coulter DTX880 plate reader.

HIV-1BaL = system: HIV-1BaL
Experimental: Cells were washed at 3 h, and infection was analyzed at day 4 using the HIV-1 p24 antigen capture assay (Advanced Bioscience Laboratory).

HIV-1ADA [5] = details: individual semen sample, 50%; R5 virus
Experimental: (§1) After 15 min, the semen and virus mixture was diluted 1:15 into 5×10^4 CEM-M7 cells/well in a 96-well plate. Cells were washed after 1 h, and infection was assayed at 48 h as above.
(§2) As human semen has been reported to be toxic to cultured cells, a protocol that minimized this toxicity was used. Pooled human semen was added to HIV-1IIIB virus in a 1:1 dilution. After 15 min, this solution was added to cells at a 1:15 dilution for a final concentration of 3.3%.

HIV-1IIIB = details: pooled human semen 1:1, then 1:15; 5.5, 11, 22.5 μg/ml
Experimental: as §1, §2

A2En cells = details: 15 μg/ml SEVI; 5.5, 11, 22.5 μg/ml; 24 h
Experimental: Supernatant was collected at 6 and 24 h, and the production of the chemokines IL-8 and Mip-3α was measured by ELISA (R&D Systems). […] After 6 h, supernatants were collected, and the production of the chemokines IL-8 and Mip-3α was measured by ELISA (R&D systems, Minneapolis, Minn.).
HIV stimulates the release of MIP-3 and IL-8 from vaginal and cervical epithelial cells.

[6] = system: cervical epithelial cell lines SiHa, A2En (endocervical), and 3EC1 (ectocervical); assay: Viability of cervical cell lines (resazurin, AlamarBlue); assay type: cell-based, human; details: up to 10 times the IC50 (66 μg/ml)
Excerpt: Loss of this protective layer leads to an increased ability for HIV-1 to cross the mucosal barrier, and inflammatory effects drive recruitment of HIV-1 target cells, further decreasing the natural barriers against successful transmission of HIV. […] To do this, the following cell lines were used: 1) SiHa cells, a cervical carcinoma cell line; 2) A2En cells, a primary cell-derived line from the endocervical […]; and 3) 3EC1 cells, a primary cell-derived line from the ectocervical […]. […] Viability was assessed at 24 h by using the resazurin cytotoxicity assay. Resazurin cytotoxicity data were confirmed by trypan blue counts of viable cells.

HIV-1ADA [7] = details: 22.5 μg/ml BTA-EG6
Experimental: After 90 min, cells were washed to remove any unbound virus, and bound virions were detected using a p24 ELISA. […] At 24 h, supernatants were collected and analyzed by ELISA for the presence of IL-8.
Surface-bound virions were then measured by p24 ELISA after washing off unbound virus. […] Additionally, this experiment was performed using A2En cells, a primary cell-derived endocervical cell line.

[8] = system: A2En, 3EC1, and SiHa Cells; assay: Cytokine and chemokine induction in cervical cell lines (ELISA); details: 6 h; varying concentrations up to 66 μg/ml
Experimental: Cytokine and chemokine production was assessed at 12 h by ELISA (R&D systems). Cells were also treated with 0.1% nonoxynol-9 as a positive control for cytotoxicity and with 0.1 μg/ml FSL1, a synthetic diacylated lipoprotein derived from Mycoplasma salivarium (InvivoGen, San Diego, Calif.), as a positive control for chemokine production.
Nonoxynol-9 (non-9), a spermicide, was used as a positive control. […] Cell culture supernatants were then assessed for the presence of the inflammatory cytokines and chemokines Mip-3α (FIG. 5B), IL-8 (FIG. 16C), IL-1β, and TNF-α.

SEVI fibrils = target: T1, SEVI fibrils (Homo sapiens, UniProt P15309); assay: Fluorescence polarization, displacement of FITC-heparin from SEVI fibrils; assay type: binding; set-up: PAP248-286 and biotinylated PAP248-286, in which a biotin was added to the amino terminus of the peptide, was synthesized; made in house; host or cells: chemical peptide synthesis; fibrils formed by agitation in PBS at 37 °C for 72 h; details: 16 μg/ml FITC-heparin; 1 h room temperature
T1 sequence (P15309 248-286 limits assumed): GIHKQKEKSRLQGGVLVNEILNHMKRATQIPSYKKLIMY
Experimental: Samples were incubated 1 h at room temperature and read on a PerkinElmer Life Sciences Envision 2012 multilabel reader (PerkinElmer, Waltham, Mass.) at an excitation λ=480 nm and emission λ=535 nm. The horizontal and vertical polarized fluorescence intensities were recorded, and the calculated polarization was determined in millipolarization units.
In order to find other small molecules that bind SEVI, a fluorescence polarizing screen was developed. Polarized light passed over a small unbound molecule with a fluorescent moiety will produce rapid rotation and will result in fluorescence that is de-polarized. Polarized light passed over SEVI bound to a small molecule with a fluorescent moiety will result in fluorescence that is polarized. […] Samples were incubated at excitation of λ=480 and emission λ=535 (FIG. 8, left graph). […] Samples were incubated for 1 hour at room temperature and polarized fluorescence was measured.
ThT is able to intercalate into the generic β-sheet structure of amyloid fibrils. […] This molecule binds to Aβ fibrils and interferes with the ability of Aβ-binding proteins to interact with the fibrils.

[9] = heparin (100 μg/ml) positive control

## Cc1ccc2nc(-c3ccc(NCCOCCOCCOCCOCCOCCO)cc3)sc2c1 [BTA-EG6]
HIV-1 (IIIB)
  SEVI mediated enhancement of HIV infection (luciferase activity): decreasing levels of luciferase activity; also recorded: inhibit SEVI mediated enhancement of HIV infection
HIV-1 IIIB [1]
  semen mediated enhancement of HIV infection (luciferase activity): decrease in luciferase activity; also recorded: inhibit semen mediated enhancement of HIV Infection
HIV-1 IIIB [2]; Jurkat cells, no SEVI
  binding of HIV virions to the cell surface in the absence of SEVI: no effect on the binding of HIV virions to the cell surface; also recorded: no effect on the binding of HIV-1 virions alone to cells
HIV-1 IIIB [2]
  SEVI-enhanced binding of HIV-1 IIIB virions to Jurkat cells (p24 ELISA): decrease in HIV-1 binding to the cells; also recorded: decrease SEVI enhanced binding of HIV to target cells; also recorded: efficiently inhibited SEVI-mediated enhancement of HIV-1IIIB attachment to Jurkat cells
HIV-1 IIIB [2]; listed as BTAEG6
  SEVI-enhanced binding of HIV-1 IIIB virions to Jurkat cells (p24 ELISA): efficiently abrogated
[3]
  Kd: 111 ± 32 nM
Jurkat cells; BTA-EG6 high (27 μg/ml)
  MFI (mean fluorescent intensity): 38.7
  SA-FITC+ (cells with bound fibrils): 21.2%
Jurkat cells; BTA-EG6 low (5.5 μg/ml)
  MFI (mean fluorescent intensity): 95.3
  SA-FITC+ (cells with bound fibrils): 36.6%
Jurkat cells; Jurkat T cells, increasing concentrations
  interaction of SEVI fibrils with the cell surface: inhibited the ability of SEVI fibrils to interact with and bind the cell surface; also recorded: inhibits the interaction of SEVI fibrils with the cell surface
HIV-1ADA [4]; 15 μg/ml SEVI, R5 strain
  SEVI-mediated enhancement of HIV-1 infection (luciferase): significant dose-dependent inhibition
HIV-1ADA [4]; absence of SEVI
  infectivity of HIV-1ADA in the absence of SEVI: No effect on the infectivity of HIV-1ADA
HIV-1BaL; 15 μg/ml SEVI, day 4
  SEVI-mediated enhancement of HIV-1 infection in PBMCs (p24): able to inhibit SEVI-mediated enhancement of HIV-1 infection in PBMCs
HIV-1BaL; absence of SEVI
  infectivity of HIV-1BaL in PBMCs in the absence of SEVI: no effect on the infectivity of HIV-1BaL
HIV-1ADA [5]
  semen-mediated enhancement of HIV-1 infection (luciferase): this effect extended to infection with an R5 virus
HIV-1IIIB
  semen-mediated enhancement of HIV-1 infection (luciferase): efficiently inhibited the semen mediated enhancement of HIV-1 infection; also recorded: inhibits semen-mediated enhancement of HIV-1 infectivity
A2En cells
  IL-8 release from cells treated with virus and SEVI: able to inhibit this release
[6]
  cell viability: did not affect the cell viability; also recorded: did not have any effects on cell viability; also recorded: not toxic to cervical cells
[6]; listed as EG6
  cell viability: not toxic to cervical epithelial Cells
HIV-1ADA [7]
  SEVI-enhanced binding of virions to A2En cells (p24): inhibited
[8]
  production of inflammatory cytokines and chemokines (Mip-3α, IL-8, IL-1β, TNF-α): did not lead to the release of any of these cytokines or chemokines; also recorded: do not induce cytokine production in cervical epithelial cells; also recorded: does not induce inflammatory chemokine production in cervical epithelial cells
SEVI fibrils
  binding to SEVI fibrils (displacement of FITC-heparin, polarized fluorescence): capable of binding SEVI; also recorded: able to displace fluorescent heparin from the SEVI fibrils in a dose-dependent fashion; also recorded: detects binding; also recorded: binds SEVI fibrils

## Cc1ccc2nc(-c3ccc(NCCOCCOCCOCCO)cc3)sc2c1 [BTA-EG4]
HIV-1 (IIIB)
  SEVI mediated enhancement of HIV infection (luciferase activity): decreasing levels of luciferase activity; also recorded: inhibit SEVI mediated enhancement of HIV infection
HIV-1 IIIB [1]
  semen mediated enhancement of HIV infection (luciferase activity): decrease in luciferase activity; also recorded: inhibit semen mediated enhancement of HIV Infection
HIV-1 IIIB [2]
  SEVI-enhanced binding of HIV-1 IIIB virions to Jurkat cells (p24 ELISA): decrease in HIV-1 binding to the cells; also recorded: decrease SEVI enhanced binding of HIV to target cells
[6]
  cell viability: did not affect the cell viability; also recorded: not toxic to cervical epithelial Cells
[8]
  production of inflammatory cytokines and chemokines (Mip-3α, IL-8, IL-1β, TNF-α): do not induce cytokine production in cervical epithelial cells
SEVI fibrils
  binding to SEVI fibrils (displacement of FITC-heparin, polarized fluorescence): capable of binding SEVI; also recorded: detects binding

## heparin [reference compound]
Jurkat cells; [9]
  MFI (mean fluorescent intensity): 376
  SA-FITC+ (cells with bound fibrils): 31.7%
SEVI fibrils
  binding to SEVI fibrils (displacement of FITC-heparin, polarized fluorescence): polarization decreased

Reference: US20130157924A1, “REDUCING TRANSMISSION OF SEXUALLY TRANSMITTED INFECTIONS” (THE REGENTS OF THE UNIVERSITY OF CALIFORNIA, priority 2010, published 2013)
